# According to patent US8470594B2, “Methods for identifying agents that affect the survival of motor neurons” (President and Fellows of Harvard College, priority 2008, dated 2013):
# Tested on: Hb9::GFP human ES cell-derived motor neurons
# Experiment: not given
# Conditions: SOD1G93A glia pretreated 1 day, MK 0524 10 μM, 20 days; p<0.05; n=3
# Experimental: (§1) Differentiation of human Embryonic Stem Cells into motor neurons. For differentiation into motor neurons, the cells were allowed to reach 80-90% confluency, washed once with PBS, and then incubated for 15 minutes at 37° C. in a solution of 1 g/L Collagenase IV (GIBCO) in DMEM-F12 (GIBCO).
# After 24 hours, the cells had aggregated to form embryoid bodies (EBs), and the media was changed to remove debris by centrifuging the EBs and resuspending in fresh in human ES cell media without bFGF2 or plasmanate in low attachment 6-well plates. EBs were cultured as such for 13 more days, with half of the media changed every two days, and a complete media change every week. After 14 days, the EBs were induced toward a caudal and ventral identity using retinoic acid (1 μM, Sigma) and an agonist of the Shh signaling pathway (1 μM) in N2 media: 1:1 DMEM:F-12+Glutamate (Gibco), 10,000 units Penicillin and 1 mg/mL Streptomicin (Gibco), 1% N2 Supplement (Gibco), 0.2 mM ascorbic acid (Sigma-Aldrich), 0.16% D-(+)-Glucose (Sigma-Aldrich), BDNF (10 ng/ml, R&D Systems), for another 14 days. […] These cells were then counted and plated on Poly-D-Lysine/Laminin CultureSlides (BD biosciences) or on a layer of primary glial cells. Depending on the experiment, motor neurons or interneurons were counted 10 or 20 days after plating. […]
row,Molecule,increase in the number of GFP positive neurons relative to untreated neurons plated on the same glia [%]
1,CS(=O)(=O)c1cc(F)cc2c3c(n(Cc4ccc(Cl)cc4)c12)[C@@H](CC(=O)O)CC3 [MK 0524],32

# Tested on: Hb9::GFP human ES cell-derived motor neurons
# Experiment: Survival of Hb9::GFP human ES cell-derived motor neurons in co-culture with non-transgenic (WT) glia
# Assay type: cell-based
# Conditions: non-transgenic (WT) mouse glia pretreated 1 day, 20 days of treatment; MCP2, Cxc17, Rantes 100 ng/ml; GMFb 250 ng/ml; PGD2 10 μM; Shh agonist 11M [sic]; n=3
# Experimental: as §1
# After 24 hours, the cells had aggregated to form embryoid bodies (EBs), and the media was changed to remove debris by centrifuging the EBs and resuspending in fresh in human ES cell media without bFGF2 or plasmanate in low attachment 6-well plates. EBs were cultured as such for 13 more days, with half of the media changed every two days, and a complete media change every week. After 14 days, the EBs were induced toward a caudal and ventral identity using retinoic acid (1 μM, Sigma) and an agonist of the Shh signaling pathway (1 μM) in N2 media: 1:1 DMEM:F-12+Glutamate (Gibco), 10,000 units Penicillin and 1 mg/mL Streptomicin (Gibco), 1% N2 Supplement (Gibco), 0.2 mM ascorbic acid (Sigma-Aldrich), 0.16% D-(+)-Glucose (Sigma-Aldrich), BDNF (10 ng/ml, R&D Systems), for another 14 days. The EBs were then matured for a final 14 days in N2 media with GNDF (10 ng/mL, R&D Systems). After 42 days of differentiation, the EBs were dissociated. To dissociate the EBs, they were centrifuged at 1000 rpm for 5 min in a 15 ml falcon tube, and then washed once with PBS to eliminate residual media. The EBs were then incubated for 60 minutes at 37° C. in Earle's Balanced Salt Solution with 20 units of papain and 1000 units of Deoxyribonuclease I (Worthington Biochemical Corporation). EBs were triturated using a 2 mL serological pipette every 15-20 minutes during this incubation. When an almost single cell suspension was achieved, the cells were centrifuged for 5 minutes at 1000 RPM. The resulting cell pellet was washed once with PBS and then resuspended in N2 media with neurotrophic factors (GDNF, and BDNF (10 ng/ml, R&D Systems)). These cells were then counted and plated on Poly-D-Lysine/Laminin CultureSlides (BD biosciences) or on a layer of primary glial cells. Depending on the experiment, motor neurons or interneurons were counted 10 or 20 days after plating.
# Primary Glial Cultures. P1-P3 mouse pups transgenic for SOD1G93A, SOD1WT or non-transgenic pups were sacrificed by using an approved method of euthanasia. Under a dissection microscope, the parenquima were isolated and the meninges were carefully stripped away with fine forceps. The tissue was then dissected into small pieces and transferred to a solution containing 12 ml of HBSS, 1.5 ml of trypsin (GIBCO) and 1% DNAse (Sigma) and incubated at 37° C. for 15 min, swirling the mixture periodically. The supernatant containing the dissociated cells was then collected and 3 ml of serum was added to inhibit trypsin activity.
# The cells were then centrifuged at 1000 rpm for 5 min, resuspended in Glia medium: (Minimun Essential Medium with Earl's salts (GIBCO), D-(+)-Glucose 20% (Sigma), Penicillin-streptomycin (GIBCO), 10% Horse Serum (GIBCO)) and plated at the concentration of 80,000 cells per mL in T75 flasks (Falcon). After the glia reached confluency, they were replated onto Poly-D-Lysine/Laminin CultureSlides (BD biosciences).
# Non-transgenic glia were individually pretreated for 1 day with either one of the three cytokines MCP2, Cxc17, or Rantes; with GMFb; an agonist of SHH pathway; or with PGD2.
row,Molecule,number of GFP positive motor neurons compared to the control condition
1,CNC1CCC(N(Cc2cccc(-c3ccncc3)c2)C(=O)c2sc3ccccc3c2Cl)CC1 (stereo not drawn) [SHH agonist],97%+/−12%
2,"CCCCC[C@H](O)/C=C/[C@H]1C(=O)C[C@H](O)[C@@H]1C/C=C\CCCC(=O)O [PGD2, prostaglandin D2]",19%+/−2%
3,Rantes,108%+/−20%
4,"GMFb: glial maturation factor beta, shown to induce a pro-inflammatory state in astrocytes; from Peprotech (protein, UniProt Q9CQI3 2-142, looked up) Glia maturation factor beta: SESLVVCDVAEDLVEKLRKFRFRKETHNAAIIMKIDKDERLVVLDEELEGVSPDELKDELPERQPRFIVYSYKYQHDDGRVSYPLCFIFSSPVGCKPEQQMMYAGSKNKLVQTAELTKVFEIRNTEDLTEEWLREKLGFFH",95%+/−9%
5,"Mcp2: cytokine over expressed in mutant glia; from Peprotech (protein, UniProt Q9Z121 24-97, looked up) C-C motif chemokine 8: GPDKAPVTCCFHVLKLKIPLRVLKSYERINNIQCPMEAVVFQTKQGMSLCVDPTQKWVSEYMEILDQKSQILQP",103%+/−8%
